In article PMC11249646, “Small-Molecule Disruptors of the Interaction between Calcium- and Integrin-Binding Protein 1 and Integrin αIIbβ3 as Novel Antiplatelet Agents” (ACS Pharmacology & Translational Science, 2024):
pIC50: −log10 of the molar value. Read-outs that look alike come from different tables or passages of the source. Where a SMILES comes first, the peptide text is derived from it. The star is where a group is joined. FITC = O=C1OC2(c3ccc(O)cc3Oc3cc(O)ccc32)c2ccc(NC(=S)*)cc21

Key:
Type in all cases: binding
[1] = molecular target: T1, CIB1 and αIIb interaction (GST-CIB1 : F-αIIb peptide) (Homo sapiens, UniProt Q99828); test: FP assay, 384-well format (screen); design: 384-well SCREEN Efficacy (%): concentration or dose not given beside the values; settings: F-αIIb peptide; for 384-well SCREEN Confirm?: YES/NO; for pIC50: read-out: 384-well SCREEN IC50
T1 construct: made in house; host or cells: BL-21 plus RIL cells (E. coli)
T1 sequence (Q99828 1-191): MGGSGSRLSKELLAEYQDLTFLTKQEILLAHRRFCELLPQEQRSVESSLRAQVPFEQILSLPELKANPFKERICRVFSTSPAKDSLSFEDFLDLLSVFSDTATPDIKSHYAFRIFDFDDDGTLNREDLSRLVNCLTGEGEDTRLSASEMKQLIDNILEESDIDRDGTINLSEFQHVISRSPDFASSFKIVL

[2] = molecular target: T2, GST-CIB1 : F-scrambled peptide (Homo sapiens, UniProt Q99828); test: FP scrambled-peptide counter screen, 384-well format; settings: for 384-well COUNTERSCREEN Efficacy (%) / pIC50: F-scrambled peptide; for pIC50: read-out: 384-well COUNTERSCREEN IC50
T2 construct: made in house; host or cells: BL-21 plus RIL cells (E. coli)
T2 sequence (Q99828 1-191): T1 sequence (Q99828 1-191)

[3] = molecular target: T3, CIB1 and αIIb interaction (CIB1-GST : F-αIIb peptide) (Homo sapiens, UniProt Q99828); test: FP assay, 1536-well qHTS format (primary and confirmatory screen); settings: for Efficacy (%) / Curve Class / pIC50: Table S2; for pIC50: read-out: IC50; for IC50: read-out: IC50 [μM] (confirmatory screen)
T3 construct: made in house; host or cells: BL-21 plus RIL cells (E. coli)
T3 sequence (Q99828 1-191): T1 sequence (Q99828 1-191)

[4] = molecular target: T2, GST-CIB1 : F-scrambled peptide; test: FP scrambled-peptide counter screen, 1536-well format; settings: for IC50: read-out: IC50 [μM] (counterscreen); for Confirm? (counterscreen): YES/NO
[5] = qHTS primary screen hits, negative = inhibition
[6] = qHTS primary screen hits, negative sign = inhibitory curve
[7] = Table S3, counterscreen, qHTS curve class, a negative sign marks inhibitory curves
[8] = Table S3, counterscreen, negative = inhibition
[9] = Table S3, confirmatory screen, YES/NO call
[10] = Table S3, confirmatory screen, qHTS curve class, a negative sign marks inhibitory curves
[11] = Table S3, confirmatory screen, negative = inhibition
[12] = qHTS FP screen hits, negative = inhibition
[13] = qHTS FP screen hits, one class per curve where COUNT > 1, negative sign = inhibitory curve
[14] = qHTS primary screen hits, negative sign = inhibitory curve, several classes where COUNT > 1
[15] = confirmatory screen, qHTS curve class, negative sign = inhibitory curve
[16] = counterscreen, qHTS curve class, negative sign = inhibitory curve

SMILES	Efficacy (%) [3, 5] [%]	pIC50 ([3]; qHTS primary screen hits)	Curve Class (counterscreen) [4, 7]	Efficacy (%) (counterscreen) [4, 8]	Curve Class (confirmatory screen) [3, 10]	Efficacy (%) (confirmatory screen) [3, 11]	Efficacy (%) [3, 12] [%]	Curve Class [3, 13]	pIC50 ([3]; qHTS FP screen hits)	Efficacy (%) (counterscreen) ([4]; counterscreen)	IC50 ([4]; counterscreen) [µM]	Efficacy (%) (confirmatory screen) ([3]; confirmatory screen)	Confirm? (confirmatory screen) ([3]; confirmatory screen, YES/NO)	Curve Class (confirmatory screen) [3, 15]	IC50 ([3]; confirmatory screen) [µM]	Curve Class (counterscreen) [4, 16]	further results
Nc1c(S(=O)(=O)[O-])cc(Nc2ccc(Nc3nc(Cl)nc(Nc4ccc(S(=O)(=O)O)cc4)n3)c(S(=O)(=O)O)c2)c2c1C(=O)c1ccccc1C2=O.[Na+] [NCGC00162329-02]	-64	5.85															384-well SCREEN Efficacy (%) [1]: 60%; 384-well SCREEN Confirm? [1]: YES; pIC50 [1]: 6.00; 384-well COUNTERSCREEN Efficacy (%) [2]: 60%; pIC50 [2]: 5.89; Curve Class [3, 6]: -1.2
CSCC[C@H](NC(=O)[C@@H](NC(=O)[C@H](CCCCN)NC(=O)[C@@H](NC(=O)[C@H](Cc1ccccc1)NC(=O)[C@H](CC(C)C)NC(=O)[C@H](CCCCN)NC(=O)[C@H](CCCNC(=N)N)NC(C)=O)C(C)C)C(C)C)C(=O)N[C@@H](Cc1ccccc1)C(=O)N[C@@H](Cc1c[nH]c2ccccc12)C(=O)N[C@@H](CCCNC(=N)N)C(=O)N[C@@H](CC(C)C)C(=O)N[C@@H](CC(N)=O)C(=O)NCC(=O)N[C@@H](C)C(=O)N[C@@H](CCCCNC(=S)Nc1ccc2c(c1)C(=O)OC21c2ccc(O)cc2Oc2cc(O)ccc21)C(=O)O [F-scrambled, reference compound] (Ac-RKLFVKVMFWRLNGAK(FITC)-OH; C-terminus assumed)																	affinity weaker compared to the native peptide ([2]; F-scrambled vs F-αIIb, 1.6 vs 0.2 μM): ~8 fold
CN(C)[C@@H]1CCN(c2cccc(Nc3nn4c(=O)c5ccccc5nc4s3)c2)C1.Cl [NCGC00189223-01]																	384-well SCREEN Efficacy (%) [1]: 48%; 384-well SCREEN Confirm? [1]: YES; pIC50 [1]: 4.80; 384-well COUNTERSCREEN Efficacy (%) [2]: 34%; pIC50 [2]: 4.85
CN1CCc2ccc3c4c2[C@]1(C)Cc1cccc(c1-4)OCO3 [NCGC00168048-01]			-2.1	-136	-2.1	-118	-100	-2.1	4.40								IC50 ([4]; Table S3, counterscreen): 31.6 µM; Confirm? (confirmatory screen) [3, 9]: YES
COc1ccc(-n2ncc3c2CCCC3NC(=O)c2ccccc2Cl)cc1.O=C(O)C(F)(F)F (stereo not drawn) [NCGC00273443-01]	-29	4.60	4	0	4	-11											Curve Class [3, 14]: -2.4
Cc1cc(SCc2sc(-c3ccc(Cl)c(Cl)c3)nc2C)ccc1OCC(=O)O.O=C(O)C(F)(F)F [NCGC00319075-01]	-41	4.47								78	79.4	-74	YES	-3	35.5		Confirm? (counterscreen) ([4]; counterscreen): YES
C=C1C(=O)O[C@@H]2[C@H]3C(C)=CC(=O)C3=C(C)[C@@H](OC(=O)/C(C)=C\C)[C@H](O)[C@@H]12 [NCGC00380702-01]							-35	-1.2	5.46	-39	1.6	-43	YES	-1.2	1.6	-1.2	
Oc1ccc(Cl)cc1Cc1cc(Cl)ccc1O [NCGC00091325-09]							-86	-2.2	4.10	-38	10	-77	YES	-2.2	44.7	-1.2	
C=C1C(=O)OC2C(OC(=O)C=C(C)C)C(C)=C3C(=O)C=C(C)C3C(O)C12 (stereo not drawn) [NCGC00380563-01]			-1.2	-47	-1.2	-43	-32	-1.2	5.60								IC50 ([4]; Table S3, counterscreen): 2.2 µM; Confirm? (confirmatory screen) [3, 9]: YES; IC50 ([3]; Table S3, confirmatory screen): 2 µM
O=C(O)c1ccccc1SC1=NS(=O)(=O)c2ccccc21 [NCGC00188636-02]			4	0	4	-29	-66	-2.2	4.35								
NC(=O)c1ccnc2c(O)cccc12.O=C(O)C(F)(F)F [NCGC00183783-01]	-40	4.70								-17		-22	YES	-2.4	50.1	4	Confirm? (counterscreen) ([4]; counterscreen): YES; Curve Class [3, 6]: -1.2
Cc1ccccc1C(=O)N1CCc2cc(-c3nc(NC(=O)Cc4ccc(OCCOCCOCCN)cc4)sc3C)ccc21.O=C(O)C(F)(F)F [NCGC00351618-01]	-25	4.75								-31	11.2	-41	YES	-1.2	39.8	-2.4	Curve Class [3, 14]: -1.4
C[C@H]1COC2=C1C(=O)C(=O)c1c2ccc2c1CCCC2(C)C [NCGC00163650-02]	-26	4.52															COUNTERSCREEN Efficacy (%) ([4]; counterscreen): -18%; COUNTERSCREEN Curve Class ([4]; counterscreen, qHTS curve class): 4; CONFIRMATORY SCREEN Efficacy (%) ([3]; confirmatory screen): 0%; CONFIRMATORY SCREEN Curve Class ([3]; confirmatory screen, qHTS curve class): 4; Curve Class [3, 14]: -2.4
O=C(O)C(F)(F)F.O=C1Nc2ccccc2/C1=N/NC(=S)Nc1ccc(O)cc1 [NCGC00229525-01]			-1.2	-61	-1.4	-32	-42	-1.2	5.05								IC50 ([4]; Table S3, counterscreen): 6.3 µM; Confirm? (confirmatory screen) [3, 9]: YES; IC50 ([3]; Table S3, confirmatory screen): 11.2 µM
COc1ccc2c(c[n+](C)c3c4cc5c(cc4ccc23)OCO5)c1OC.[Cl-] [NCGC00015225-03]										-55	28.2	-56	YES	-1.4	11.2	-2.2	
CN1CCN([C@H]2CC[C@H](n3cc(-c4ccc(Oc5ccccc5)cc4)c4c(N)ncnc43)CC2)CC1.Cl [NCGC00370980-02]							-56	-2.2	4.30	-17		-44	YES	-2.2		4	Confirm? (counterscreen) ([4]; counterscreen): YES
